Results: patent publication US10323022B2, “Pyrrolidinyl urea, pyrrolidinyl thiourea and pyrrolidinyl guanidine compounds as TrkA kinase inhibitors” (Array BioPharma Inc., priority 2011, dated 2019)

The compounds below were run against TrkA (Homo sapiens (Human), UniProt P04629) (assay: TrkA Omnia Assay). Conditions: averaged IC50; 20 nM enzyme, 500 μM ATP, 10 μM peptide substrate.
TrkA, sequence (P04629 33-796): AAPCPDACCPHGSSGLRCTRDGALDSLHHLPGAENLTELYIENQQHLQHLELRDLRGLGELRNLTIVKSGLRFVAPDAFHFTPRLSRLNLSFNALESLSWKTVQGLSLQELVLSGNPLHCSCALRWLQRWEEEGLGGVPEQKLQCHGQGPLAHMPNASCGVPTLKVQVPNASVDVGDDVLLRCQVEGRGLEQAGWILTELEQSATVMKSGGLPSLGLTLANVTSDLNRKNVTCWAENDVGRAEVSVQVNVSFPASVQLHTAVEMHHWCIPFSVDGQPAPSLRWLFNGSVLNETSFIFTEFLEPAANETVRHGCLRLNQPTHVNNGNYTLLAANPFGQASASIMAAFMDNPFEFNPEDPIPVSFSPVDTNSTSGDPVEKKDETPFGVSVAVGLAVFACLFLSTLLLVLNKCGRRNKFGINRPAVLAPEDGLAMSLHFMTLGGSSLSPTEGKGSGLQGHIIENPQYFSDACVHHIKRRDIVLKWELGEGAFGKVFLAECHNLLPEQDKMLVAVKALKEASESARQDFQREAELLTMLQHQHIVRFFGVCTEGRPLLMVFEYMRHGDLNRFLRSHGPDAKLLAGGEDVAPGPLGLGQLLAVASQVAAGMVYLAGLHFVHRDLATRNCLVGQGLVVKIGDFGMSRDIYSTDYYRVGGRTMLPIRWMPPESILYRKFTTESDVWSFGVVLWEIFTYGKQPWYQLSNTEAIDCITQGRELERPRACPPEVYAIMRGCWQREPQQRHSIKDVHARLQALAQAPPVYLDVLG
Assay type: biochemical
Summary of the method: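 Recombinant TrkA (20 nM) preincubated 10 min at ambient temperature with compound, then Omnia Tyr Peptide #4 (10 μM) and ATP (500 μM) added in 25 mM MOPS pH 7.5, 5 mM MgCl2, 0.005% Triton X-100. Fluorescence (ex 360/em 485 nm) followed continuously for 70 min; IC50 from initial rates by 4- or 5-parameter logistic fit.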
An IC50 of less than 100 nM was found for `CCOc1nn(-c2ccccc2)c(NC(=O)N[C@@H]2CN(c3cn[nH]c3)C[C@H]2c2ccc(F)c(F)c2)c1C` [Example 216, 1-((3S,4R)-4-(3,4-difluorophenyl)-1-(1H-pyrazol-4-yl)pyrrolidin-3-yl)-3-(3-ethoxy-4-methyl-1-phenyl-1H-pyrazol-5-yl)urea] in this work. An IC50 of less than 100 nM was found for `CCOc1nn(-c2ccccc2)c(NC(=O)N[C@@H]2CN(c3cn[nH]c3)C[C@H]2c2cc(F)cc(F)c2)c1C` [Example 217, 1-((3S,4R)-4-(3,5-difluorophenyl)-1-(1H-pyrazol-4-yl)pyrrolidin-3-yl)-3-(3-ethoxy-4-methyl-1-phenyl-1H-pyrazol-5-yl)urea] in this work. An IC50 of less than 100 nM was found for `CCOc1nn(-c2ccccc2)c(NC(=O)N[C@@H]2CN(c3cc[nH]n3)C[C@H]2c2cc(F)cc(F)c2)c1C` [Example 218, 1-((3S,4R)-4-(3,5-difluorophenyvl)-1-(1H-pyrazol-3-yl)pyrrolidin-3-yl)-3-(3-ethoxy-4-methyl-1-phenyl-1H-pyrazol-5-yl)urea] in this work. An IC50 of less than 100 nM was found for `CCOc1nn(-c2ccccc2)c(NC(=O)N[C@@H]2CN(c3c[nH]nc3C)C[C@H]2c2ccc(F)c(F)c2)c1C` [Example 219, 1-((3S,4R)-4-(3,4-difluorophenyl)-1-(3-methyl-1H-pyrazol-4-yl)pyrrolidin-3-yl)-3-(3-ethoxy-4-methyl-1-phenyl-1H-pyrazol-5-yl)urea] in this work. An IC50 of 100 to 1000 nM was found for `CCOc1nn(-c2ccccc2)c(NC(=O)N[C@@H]2CN(c3c[nH]nc3C(F)(F)F)C[C@H]2c2ccc(F)c(F)c2)c1C` [Example 220, 1-((3S,4R)-4-(3,4-difluorophenyl)-1-(3-(trifluoromethyl)-1H-pyrazol-4-yl)pyrrolidin-3-yl)-3-(3-ethoxy-4-methyl-1-phenyl-1H-pyrazol-5-yl)urea] in this work. An IC50 of less than 100 nM was found for `Cc1c(OC[C@H](C)O)nn(-c2ccccc2)c1NC(=O)N[C@@H]1CN(c2cn[nH]c2)C[C@H]1c1ccc(F)c(F)c1` [Example 221, 1-((3S,4R)-4-(3,4-difluorophenyl)-1-(1H-pyrazol-4-yl)pyrrolidin-3-yl)-3-(3-((S)-2-hydroxypropoxy)-4-methyl-1-phenyl-1H-pyrazol-5-yl)urea] in this work. An IC50 of less than 100 nM was found for `Cc1c(OC[C@H](O)CO)nn(-c2ccccc2)c1NC(=O)N[C@@H]1CN(c2cn[nH]c2)C[C@H]1c1ccc(F)c(F)c1` [Example 222, 1-((3S,4R)-4-(3,4-difluorophenyl)-1-(1H-pyrazol-4-yl)pyrrolidin-3-yl)-3-(3-((R)-2,3-dihydroxypropoxy)-4-methyl-1-phenyl-1H-pyrazol-5-yl)urea] in this work. An IC50 of less than 100 nM was found for `Cc1nn(-c2ccccc2)c(NC(=O)N[C@@H]2CN(c3cn[nH]c3)C[C@H]2c2cc(F)cc(F)c2)c1C` [Example 223, 1-((3S,4R)-4-(3,5-difluoro-phenyl)-1-(1H-pyrazol-4-yl)pyrrolidin-3-yl)-3-(3,4-dimethyl-1-phenyl-1H-pyrazol-5-yl)urea] in this work. An IC50 of less than 100 nM was found for `Cc1nn(-c2ccccc2)c(NC(=O)N[C@@H]2CN(c3cn[nH]c3)C[C@H]2c2ccc(F)c(F)c2)c1C` [Example 224, 1-((3S,4R)-4-(3,4-difluorophenyl)-1-(1H-pyrazol-4-yl)pyrrolidin-3-yl)-3-(3,4-dimethyl-1-phenyl-1H-pyrazol-5-yl)urea] in this work. An IC50 of less than 100 nM was found for `COCCCc1nn(-c2ccccc2)c(NC(=O)N[C@@H]2CN(c3cn[nH]c3)C[C@H]2c2ccc(F)c(F)c2)c1C` [Example 225, 1-((3S,4R)-4-(3,4-difluorophenyl)-1-(1H-pyrazol-4-yl)pyrrolidin-3-yl)-3-(3-(3-methoxypropyl)-4-methyl-1-phenyl-1H-pyrazol-5-yl)urea] in this work. An IC50 of less than 100 nM was found for `COCCOc1nn(-c2ccccc2)c(NC(=O)N[C@@H]2CN(c3cn[nH]c3)C[C@H]2c2ccc(F)c(F)c2)c1C` [Example 226, 1-((3S,4R)-4-(3,4-difluorophenyl)-1-(1H-pyrazol-4-yl)pyrrolidin-3-yl)-3-(3-(2-methoxyethoxy)-4-methyl-1-phenyl-1H-pyrazol-5-yl)urea] in this work. An IC50 of less than 100 nM was found for `Cc1c(OCC(C)(C)O)nn(-c2ccccc2)c1NC(=O)N[C@@H]1CN(c2cn[nH]c2)C[C@H]1c1ccc(F)c(F)c1` [Example 227, 1-((3S,4R)-4-(3,4-difluorophenyl)-1-(1H-pyrazol-4-yl)pyrrolidin-3-yl)-3-(3-(2-hydroxy-2-methylpropoxy)-4-methyl-1-phenyl-1H-pyrazol-5-yl)urea] in this work. An IC50 of less than 100 nM was found for `CCOc1nn(-c2ccccc2)c(NC(=O)N[C@@H]2CN(c3ccnn3C)C[C@H]2c2ccccc2)c1C` [Example 228, 1-(3-ethoxy-4-methyl-1-phenyl-1H-pyrazol-5-yl)-3-((3S,4R)-1-(1-methyl-1H-pyrazol-5-yl)-4-phenylpyrrolidin-3-yl)urea] in this work. An IC50 of less than 100 nM was found for `CCOc1nn(-c2ccccc2)c(NC(=O)N[C@H]2CN(c3ccnn3C)C[C@@H]2c2ccccc2)c1C` [Example 229, 1-(3-ethoxy-4-methyl-1-phenyl-1H-pyrazol-5-yl)-3-((3R,4S)-1-(1-methyl-1H-pyrazol-5-yl)-4-phenylpyrrolidin-3-yl)urea] in this work. An IC50 of 100 to 1000 nM was found for `CCOc1nn(-c2ccccc2)c(NC(=O)N[C@@H]2CN(c3ccnn3C)C[C@H]2c2cc(F)cc(F)c2)c1C` [Example 230, 1-((3S,4R)-4-(3,5-difluorophenyl)-1-(1-methyl-1H-pyrazol-5-yl)pyrrolidin-3-yl)-3-(3-ethoxy-4-methyl-1-phenyl-1H-pyrazol-5-yl)urea] in this work. An IC50 of less than 100 nM was found for `CCOc1nn(-c2ccccc2)c(NC(=O)N[C@H]2CN(c3ccnn3C)C[C@@H]2c2cc(F)cc(F)c2)c1C` [Example 231, 1-((3R,4S)-4-(3,5-difluorophenyl)-1-(1-methyl-1H-pyrazol-5-yl)pyrrolidin-3-yl)-3-(3-ethoxy-4-methyl-1-phenyl-1H-pyrazol-5-yl)urea] in this work. An IC50 of 100 to 1000 nM was found for `CCOc1nn(-c2ccccc2)c(NC(=O)N[C@@H]2CN(c3ccccc3)C[C@H]2c2ccc(F)c(F)c2)c1C` [Example 232, 1-((3S,4R)-4-(3,4-difluorophenyl)-1-phenylpyrrolidin-3-yl)-3-(3-ethoxy-4-methyl-1-phenyl-1H-pyrazol-5-yl)urea] in this work. An IC50 of 100 to 1000 nM was found for `CCOc1nn(-c2ccccc2)c(NC(=O)N[C@@H]2CN(c3ccccc3OC)C[C@H]2c2ccc(F)c(F)c2)c1C` [Example 233, 1-((3S,4R)-4-(3,4-difluorophenyl)-1-(2-methoxyphenyl)pyrrolidin-3-yl)-3-(3-ethoxy-4-methyl-1-phenyl-1H-pyrazol-5-yl)urea] in this work. An IC50 of 100 to 1000 nM was found for `CCOc1nn(-c2ccccc2)c(NC(=O)N[C@@H]2CN(c3ccccc3F)C[C@H]2c2ccccc2)c1C` [Example 234, 1-(3-ethoxy-4-methyl-1-phenyl-1H-pyrazol-5-yl)-3-((3S,4R)-1-(2-fluorophenyl)-4-phenylpyrrolidin-3-yl)urea] in this work. An IC50 of 100 to 1000 nM was found for `CCOc1nn(-c2ccccc2)c(NC(=O)N[C@@H]2CN(c3ccc(F)cc3)C[C@H]2c2ccccc2)c1C` [Example 235, 1-(3-ethoxy-4-methyl-1-phenyl-1H-pyrazol-5-yl)-3-((3S,4R)-1-(4-fluorophenyl)-4-phenylpyrrolidin-3-yl)urea] in this work. An IC50 of 100 to 1000 nM was found for `CCOc1nn(-c2ccccc2)c(NC(=O)N[C@@H]2CN(c3ccccc3C)C[C@H]2c2ccccc2)c1C` [Example 236, 1-(3-ethoxy-4-methyl-1-phenyl-1H-pyrazol-5-yl)-3-((3S,4R)-1-(2-methylphenyl)-4-phenylpyrrolidin-3-yl)urea] in this work. An IC50 of 100 to 1000 nM was found for `CCOc1nn(-c2ccccc2)c(NC(=O)N[C@@H]2CN(c3ccccc3OC)C[C@H]2c2ccccc2)c1C` [Example 237, 1-(3-ethoxy-4-methyl-1-phenyl-1H-pyrazol-5-yl)-3-((3S,4R)-1-(2-methoxyphenyl)-4-phenylpyrrolidin-3-yl)urea] in this work. An IC50 of 100 to 1000 nM was found for `CCOc1nn(-c2ccccc2)c(NC(=O)N[C@@H]2CN(c3ccccc3Cl)C[C@H]2c2ccccc2)c1C` [Example 238, 1-(3-ethoxy-4-methyl-1-phenyl-1H-pyrazol-5-yl)-3-((3S,4R)-1-(2-chlorophenyl)-4-phenylpyrrolidin-3-yl)urea] in this work. An IC50 of 100 to 1000 nM was found for `CCOc1nn(-c2ccccc2)c(NC(=O)N[C@@H]2CN(c3ccccc3OC(F)(F)F)C[C@H]2c2ccccc2)c1C` [Example 239, 1-(3-ethoxy-4-methyl-1-phenyl-1H-pyrazol-5-yl)-3-((3S,4R)-4-phenyl-1-(2-(trifluoromethoxy)phenyl)pyrrolidin-3-yl)urea] in this work. An IC50 of 100 to 1000 nM was found for `CCOc1nn(-c2ccccc2)c(NC(=O)N[C@@H]2CN(c3c(F)cccc3F)C[C@H]2c2ccccc2)c1C` [Example 240, 1-((3S,4R)-1-(2,6-difluorophenyl)-4-phenylpyrrolidin-3-yl)-3-(3-ethoxy-4-methyl-1-phenyl-1H-pyrazol-5-yl)urea] in this work. An IC50 of 100 to 1000 nM was found for `CCOc1nn(-c2ccccc2)c(NC(=O)N[C@@H]2CN(c3ccnc(OC)c3)C[C@H]2c2ccccc2)c1C` [Example 241, 1-(3-ethoxy-4-methyl-1-phenyl-1H-pyrazol-5-yl)-3-((3S,4R)-1-(2-methoxypyridin-4-yl)-4-phenylpyrrolidin-3-yl)urea] in this work. An IC50 of less than 100 nM was found for `CCOc1nn(-c2ccccc2)c(NC(=O)N[C@@H]2CN(c3cccnc3OC)C[C@H]2c2ccccc2)c1C` [Example 242, 1-(3-ethoxy-4-methyl-1-phenyl-1H-pyrazol-5-yl)-3-((3S,4R)-1-(2-methoxypyridin-3-yl)-4-phenylpyrrolidin-3-yl)urea] in this work. An IC50 of less than 100 nM was found for `CCOc1ncccc1N1C[C@@H](NC(=O)Nc2c(C)c(OCC)nn2-c2ccccc2)[C@H](c2ccccc2)C1` [Example 243, 1-(3-ethoxy-4-methyl-1-phenyl-1H-pyrazol-5-yl)-3-((3S,4R)-1-(2-ethoxypyridin-3-yl)-4-phenylpyrrolidin-3-yl)urea] in this work. An IC50 of 100 to 1000 nM was found for `COc1ncccc1N1C[C@@H](NC(=O)Nc2c(C)c(-c3ccccc3)nn2-c2ccccc2)[C@H](c2ccccc2)C1` [Example 245, 1-((3S,4R)-1-(2-methoxypyridin-3-yl)-4-phenylpyrrolidin-3-yl)-3-(4-methyl-1,3-diphenyl-1H-pyrazol-5-yl)urea] in this work.
